Tested on: HUVEC/MSC spheroids viability
Assay: Human HUVEC/MSC cell line growth inhibition [KRAS2];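 for viability, T/C: percent of DMSO vehicle control luminescence so 100% = untreated viability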
Conditions: for IC50: curve of first compound; for viability, T/C: stronger effect = lower value
Summary of the method: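 Growth/viability of tumour-free HUVEC–hMSC spheroids was measured after exposure to targeted small molecules and KRAS inhibitors, singly or in combination. Agents were diluted in half-log steps from Cmax-based top concentrations, capped at 10 microM without known Cmax.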

[1] = second compound 0.0316 µM, first compound 0.0316 µM
[2] = second compound 0.0316 µM, first compound 0.1 µM
[3] = second compound 0.0316 µM, first compound 0.316 µM
[4] = second compound 0.0316 µM, first compound 1 µM
[5] = second compound 0.1 µM, first compound 0.0316 µM
[6] = second compound 0.1 µM, first compound 0.1 µM
[7] = second compound 0.1 µM, first compound 0.316 µM
[8] = second compound 0.1 µM, first compound 1 µM
[9] = second compound 0.316 µM, first compound 0.0316 µM
[10] = second compound 0.316 µM, first compound 0.1 µM
[11] = second compound 0.316 µM, first compound 0.316 µM
[12] = second compound 0.316 µM, first compound 1 µM
[13] = second compound 1 µM, first compound 0.0316 µM
[14] = second compound 1 µM, first compound 0.1 µM
[15] = second compound 1 µM, first compound 0.316 µM
[16] = second compound 1 µM, first compound 1 µM
[17] = second compound 3.16 µM, first compound 0.0316 µM
[18] = second compound 3.16 µM, first compound 0.1 µM
[19] = second compound 3.16 µM, first compound 0.316 µM
[20] = second compound 3.16 µM, first compound 1 µM
[21] = second compound 10 µM, first compound 0.0316 µM
[22] = second compound 10 µM, first compound 0.1 µM
[23] = second compound 10 µM, first compound 0.316 µM
[24] = second compound 10 µM, first compound 1 µM
[25] = second compound 0.0316 µM, first compound 0.00316 µM
[26] = second compound 0.0316 µM, first compound 0.01 µM
[27] = second compound 0.1 µM, first compound 0.00316 µM
[28] = second compound 0.1 µM, first compound 0.01 µM
[29] = second compound 0.316 µM, first compound 0.00316 µM
[30] = second compound 0.316 µM, first compound 0.01 µM
[31] = second compound 1 µM, first compound 0.00316 µM
[32] = second compound 1 µM, first compound 0.01 µM
[33] = second compound 3.16 µM, first compound 0.00316 µM
[34] = second compound 3.16 µM, first compound 0.01 µM
[35] = second compound 10 µM, first compound 0.00316 µM
[36] = second compound 10 µM, first compound 0.01 µM

`CC1(C)CCC(CN2CCN(c3ccc(C(=O)NS(=O)(=O)c4ccc(NCC5CCOCC5)c([N+](=O)[O-])c4)c(Oc4cnc5[nH]ccc5c4)c3)CC2)=C(c2ccc(Cl)cc2)C1` + CNCc1ccccc1-c1csc(C(C)Nc2nc(C)nc3cc(OC)c(OC)cc23)c1 was tested, and the IC50 (second compound 0.0316 µM) was 4.27 µM, the IC50 (second compound 0.1 µM) was 4.11 µM and the IC50 (second compound 0.316 µM) was 4.04 µM. For the same compound, the IC50 (second compound 1 µM) was 4.92 µM, the IC50 (second compound 3.16 µM) was 5.27 µM and the IC50 (second compound 10 µM) was less than 0.0316 µM. It also gave a viability, T/C [1] of 101%, a viability, T/C [2] of 111% and a viability, T/C [3] of 101%. For the same compound, the viability, T/C [4] was 94.2%, the viability, T/C (second compound 0.0316 µM, first compound 3.16 µM) was 67.1% and the viability, T/C (second compound 0.0316 µM, first compound 10 µM) was 1.69%. The viability, T/C [5] was 87.2%, the viability, T/C [6] was 106% and the viability, T/C [7] was 93.7%. It also gave a viability, T/C [8] of 87%, a viability, T/C (second compound 0.1 µM, first compound 3.16 µM) of 63.2% and a viability, T/C (second compound 0.1 µM, first compound 10 µM) of 5.65%. It also gave a viability, T/C [9] of 79.8%, a viability, T/C [10] of 76.3% and a viability, T/C [11] of 97.8%. It also gave a viability, T/C [12] of 104%, a viability, T/C (second compound 0.316 µM, first compound 3.16 µM) of 62.8% and a viability, T/C (second compound 0.316 µM, first compound 10 µM) of 2.84%. It also gave a viability, T/C [13] of 75.4%, a viability, T/C [14] of 73.7% and a viability, T/C [15] of 90.9%. For the same compound, the viability, T/C [16] was 76.6%, the viability, T/C (second compound 1 µM, first compound 3.16 µM) was 80.2% and the viability, T/C (second compound 1 µM, first compound 10 µM) was 2.99%. For the same compound, the viability, T/C [17] was 78.3%, the viability, T/C [18] was 99.6% and the viability, T/C [19] was 82%. The viability, T/C [20] was 92.2%, the viability, T/C (second compound 3.16 µM, first compound 3.16 µM) was 95.9% and the viability, T/C (second compound 3.16 µM, first compound 10 µM) was 0.31%. The viability, T/C [21] was 0.33%, the viability, T/C [22] was 0.35% and the viability, T/C [23] was 0.51%. The viability, T/C [24] was 0.51%, the viability, T/C (second compound 10 µM, first compound 3.16 µM) was 0.36% and the viability, T/C (second compound 10 µM, first compound 10 µM) was 0.57%.
`CCN1CCN(Cc2ccc(Nc3ncc(F)c(-c4cc(F)c5nc(C)n(C(C)C)c5c4)n3)nc2)CC1` + CNCc1ccccc1-c1csc(C(C)Nc2nc(C)nc3cc(OC)c(OC)cc23)c1 was tested, and the IC50 (second compound 0.0316 µM) was greater than 1 µM, the IC50 (second compound 0.1 µM) was greater than 1 µM and the IC50 (second compound 0.316 µM) was greater than 1 µM. It also gave an IC50 (second compound 1 µM) greater than 1 µM, an IC50 (second compound 3.16 µM) of 0.563 µM and an IC50 (second compound 10 µM) of less than 0.00316 µM. It also gave a viability, T/C [25] of 100%, a viability, T/C [26] of 93.7% and a viability, T/C [1] of 68.7%. The viability, T/C [2] was 96.5%, the viability, T/C [3] was 107% and the viability, T/C [4] was 140%. It also gave a viability, T/C [27] of 91%, a viability, T/C [28] of 96.2% and a viability, T/C [5] of 83%. The viability, T/C [6] was 85.6%, the viability, T/C [7] was 107% and the viability, T/C [8] was 155%. It also gave a viability, T/C [29] of 78.2%, a viability, T/C [30] of 97.7% and a viability, T/C [9] of 79.5%. For the same compound, the viability, T/C [10] was 92.7%, the viability, T/C [11] was 102% and the viability, T/C [12] was 113%. For the same compound, the viability, T/C [31] was 54.9%, the viability, T/C [32] was 90.8% and the viability, T/C [13] was 91.8%. The viability, T/C [14] was 81.4%, the viability, T/C [15] was 114% and the viability, T/C [16] was 119%. The viability, T/C [33] was 83.8%, the viability, T/C [34] was 103% and the viability, T/C [17] was 95.5%. The viability, T/C [18] was 92.8%, the viability, T/C [19] was 123% and the viability, T/C [20] was 0.46%. It also gave a viability, T/C [35] of 0.4%, a viability, T/C [36] of 0.42% and a viability, T/C [21] of 0.47%. The viability, T/C [22] was 0.41%, the viability, T/C [23] was 0.39% and the viability, T/C [24] was 0.31%.
For `Cn1ncnc1[C@H]1c2n[nH]c(=O)c3cc(F)cc(c23)N[C@@H]1c1ccc(F)cc1` + CNCc1ccccc1-c1csc(C(C)Nc2nc(C)nc3cc(OC)c(OC)cc23)c1, the IC50 (second compound 0.0316 µM) was greater than 0.1 µM, the IC50 (second compound 0.1 µM) was greater than 0.1 µM and the IC50 (second compound 0.316 µM) was greater than 0.1 µM. For the same compound, the IC50 (second compound 1 µM) was greater than 0.1 µM, the IC50 (second compound 3.16 µM) was greater than 0.1 µM and the IC50 (second compound 10 µM) was less than 0.000316 µM. The viability, T/C (second compound 0.0316 µM, first compound 0.000316 µM) was 97.8%, the viability, T/C (second compound 0.0316 µM, first compound 0.001 µM) was 85.9% and the viability, T/C [25] was 81.2%. The viability, T/C [26] was 73.2%, the viability, T/C [1] was 76.8% and the viability, T/C [2] was 78.4%. It also gave a viability, T/C (second compound 0.1 µM, first compound 0.000316 µM) of 93.3%, a viability, T/C (second compound 0.1 µM, first compound 0.001 µM) of 90.2% and a viability, T/C [27] of 90.2%. It also gave a viability, T/C [28] of 70.6%, a viability, T/C [5] of 81.8% and a viability, T/C [6] of 79.7%. The viability, T/C (second compound 0.316 µM, first compound 0.000316 µM) was 65.4%, the viability, T/C (second compound 0.316 µM, first compound 0.001 µM) was 90.5% and the viability, T/C [29] was 79.9%. For the same compound, the viability, T/C [30] was 76.5%, the viability, T/C [9] was 76.2% and the viability, T/C [10] was 69.2%. It also gave a viability, T/C (second compound 1 µM, first compound 0.000316 µM) of 67.3%, a viability, T/C (second compound 1 µM, first compound 0.001 µM) of 76.9% and a viability, T/C [31] of 67%. The viability, T/C [32] was 75.3%, the viability, T/C [13] was 75.9% and the viability, T/C [14] was 72%. For the same compound, the viability, T/C (second compound 3.16 µM, first compound 0.000316 µM) was 89%, the viability, T/C (second compound 3.16 µM, first compound 0.001 µM) was 86.8% and the viability, T/C [33] was 94.7%. The viability, T/C [34] was 80.7%, the viability, T/C [17] was 77.8% and the viability, T/C [18] was 75%. The viability, T/C (second compound 10 µM, first compound 0.000316 µM) was 0.29%, the viability, T/C (second compound 10 µM, first compound 0.001 µM) was 0.28% and the viability, T/C [35] was 0.32%. The viability, T/C [36] was 0.29%, the viability, T/C [21] was 0.31% and the viability, T/C [22] was 0.28%.

From PubChem BioAssay AID2060912 (Molecular Pharmacology Branch, DTP, NCI, 2025)
